According to US20120065226A1, “SALTS OF […] 10-CAMPH[…]” (ADAMED SP Z O.O., priority 2009, published 2012):
Where a name gives a salt, the structure may show the parent alone.

Assays:
[1] = Hygroscopicity of the crystals; type: physicochemical
[2] = Recrystallization from various organic solvents, crystalline form by XRPD; type: physicochemical; conditions: XRPD analysis
From the text: The process for the preparation of novel tiotropium salts with 10-camphorsulphonic acid and with single optical isomers thereof as well as monohydrates of the salts according to the present invention allows to obtain the desired product as stable, non-hygroscopic crystals, with high yield and with purity acceptable for being used in pharmaceutical compositions. Stability of crystalline anhydrous tiotropium salts with 1R-(−)-10-camphorsulphonic and 1S-(+)-10-camphorsulphonic acids was confirmed experimentally. […] Therefore, no transformation or modification of a crystalline salt takes place.
XRPD patterns were obtained using Rigaku MiniFlex X-ray diffractometer, with Cu Kα radiation, filter Kβ. Lamps parameters were set at 30 kV and 15 mA. Divergence and scattering slits were set at 4.2°, and a receiving slit was set at 0.3 mm. Deflection of rays was detected with scintillation detector NaI. The θ/2θ continuous scan at 1°/min with a step of 0.02° from 2.0 to 40° 2θ was used. The samples were prepared by pressing the solid in a quartz holder.

Structure (SMILES) | hygroscopicity [1] | crystalline form after recrystallization [2]
CC1(C)C2CC[C@]1(CS(=O)(=O)[O-])C(=O)C2.C[N+]1(C)C2CC(OC(=O)C(O)(c3cccs3)c3cccs3)CC1C1OC12.O (stereo not drawn) [Crystalline monohydrate of tiotropium salt with 1R-(−)-10-camphorsulphonic acid] | non-hygroscopic | –
CC1(C)C2CC[C@@]1(CS(=O)(=O)[O-])C(=O)C2.C[N+]1(C)C2CC(OC(=O)C(O)(c3cccs3)c3cccs3)CC1C1OC12.O (stereo not drawn) [Crystalline monohydrate of tiotropium salt with 1S-(+)-10-camphorsulphonic acid] | non-hygroscopic | –
C[N+]1(C)C2CC(OC(=O)C(O)(c3cccs3)c3cccs3)CC1C1OC12 (stereo not drawn) [Tiotropium salt with 1R-(−)-10-camphorsul-phonic acid, anhyd] [Tiotropium salt with 1R-(−)-10-camphorsulphonic acid (anhydrous)] | – | initial crystalline form
C[N+]1(C)C2CC(OC(=O)C(O)(c3cccs3)c3cccs3)CC1C1OC12 (stereo not drawn) [Tiotropium salt with 1S-(+)-10-camphorsul-phonic acid, anhyd] [Tiotropium salt with 1S-(+)-10-camphorsulphonic acid (anhydrous)] | – | initial crystalline form
